Data set [1] deals with T1, hDGKa C1 domain cysteines (Homo sapiens, UniProt P23743).
T1 construct: expressed in transfected cells; host or cells: HEK293T
Put plainly: JWB003 labeling competition in vitro. The format is binding. Here is the method:
• 1. HEK293T cells were harvested in cold PBS. • a. Cells were transferred to Eppendorf tube. • 2. Cells were lysed via tip sonicator. • 3. Cells were fractionated into membrane and soluble fraction. • a. 100,000×G for 45 minutes at 4 degree. • b. Supernatant was separated from cell pellet. • 4. Dilute proteomes to 1 mg/mL in PBS and aliquot appropriate reaction volume (49 μL for probe only; 48 μL for competition+probe) • 5. Cells were treated with 50× inhibitor. • a. Incubated for 1Hr at 37 degree. • 6. Cells were treated with 50× Probe (JWB003). • a. Incubated for 1Hr at 37 degree. • 7. Add 6 μL of master mix to each alkyne probe-labeled sample. • a. 1 μL of 1.25 mM Rh-N3 • b. 1 μL of fresh 50 mM TCEP • c. 3 μL of 1.7 mM TBTA stock • d. 1 μL of 50 mM CuSO4 • 8. Vortex samples. • 9. Incubate at room temperature for 1 hr • 10. Quench with 17 μL of 4×SDS-PAGE loading buffer+βME and vortex tubes. • 11. Analyze 30 μL samples by SDS-PAGE immediately. [B] Labeling HEK293T Cells to Determine Target Proteins of JWB003 in Live Cells (In Situ) • 1. Complete media was removed from HEK293T cells and replaced with serum free media containing JWB003 at the appropriate final concentration • a. Cells were placed in incubator for appropriate time at 37 degree 5% CO2 • 2. Cells were washed • a. 2× warm PBS • b. 2× cold PBS • c. Harvest cells in cold PBS • 3. Cells were transferred to Eppendorf tube • 4. Cells were lysed via tip sonicator • 5. Cells were fractionated into membrane and soluble fraction • a. 100,000×G for 45 minutes at 4 degrees • b. Supernatant was separated from cell pellet. • 6. Dilute proteomes to 1 mg/mL and aliquot appropriate reaction volume (50 μL) • 7. Add 6 μL of master mix to each alkyne probe-labeled sample. • a. 1 μL of 1.25 mM Rh-N3 • b. 1 μL of fresh 50 mM TCEP • c. 3 μL of 1.7 mM TBTA stock • d. 1 μL of 50 mM CuSO4 • 8. Vortex samples. • 9. Incubate at room temperature for 1 hr. • 10. Quench with 17 μL of 4×SDS-PAGE loading buffer+βME and vortex tubes. • 11. Analyze 30 μL samples by SDS-PAGE immediately. [C] […]

Data set [2] concerns Bone Marrow Derived Macrophages (BMDMs), noncancerous primary cells. Put plainly: WST-1 Cell Proliferation Assay. The format is cell-based. Particulars: ritanserin highest concentration tested 50 μM; staurosporine 1 μM.
For data set [3] the following is noted: humans, cited from earlier work.
The target of a further data set is T2, FER (Homo sapiens, UniProt P16591).
T2 construct: measure selectivity of compounds against native kinases detected in lung cancer proteomes; endogenous in cells; host or cells: A549 and H82 lung cancer cell proteomes
Nature of the data set: ATP acyl phosphate chemical proteomics in lung cancer cell proteomes. The format is binding. The settings on record: 100 μM; A549 and H82 proteomes. Here is the method:
(§1) LC-MS analysis of SILAC samples using ATP acyl phosphates. Quantitative chemoproteomics was performed as previously described (Franks et al., 2017; McCloud et al., 2018).
(§2) Computational Methods. Data for A549 and H82 cell lines were searched with IP2 and manually validated using the methods previously described (Franks et al., 2017). Data for Desthiobiotin-tagged ATP acyl-phosphate probes and ATP competitive peptides were compared and clustered. Ritanserin and ketanserin inhibition profiles were compared using SILAC ratios and normalized to DMSO.
(§3) Based on previous chemical proteomics (Franks, 2017), it was hypothesized that ritanserin is functioning as a kinase inhibitor to mediate cytotoxicity in the lung cancer cell models. […] For these studies, NSCLC and SCLC cells were cultured in isotopically light and heavy amino acids to enable quantitative chemical proteomics (Chang. 2015) by stable isotope labeling with amino acids in cell culture (SILAC, FIG. 17A). […] After probe labeling, light and heavy proteomes were combined, digested with trypsin protease, and desthiobiotin-modified peptides enriched by avidin affinity chromatography and analyzed by LC-MS/MS to identify and quantify isotopically tagged active-site peptides from native kinases as previously described(Franks, 2017) (FIG. 17A).

A further data set addresses T3, TLK2 (Homo sapiens, UniProt Q86UE8).
T3 construct: measure selectivity of compounds against native kinases detected in lung cancer proteomes; endogenous in cells; host or cells: A549 and H82 lung cancer cell proteomes
Described as above. Type of data set: binding. The settings on record: 100 μM; A549 and H82 proteomes. The procedure: as §1, §2, §3

T2 sequence (P16591 whole entry): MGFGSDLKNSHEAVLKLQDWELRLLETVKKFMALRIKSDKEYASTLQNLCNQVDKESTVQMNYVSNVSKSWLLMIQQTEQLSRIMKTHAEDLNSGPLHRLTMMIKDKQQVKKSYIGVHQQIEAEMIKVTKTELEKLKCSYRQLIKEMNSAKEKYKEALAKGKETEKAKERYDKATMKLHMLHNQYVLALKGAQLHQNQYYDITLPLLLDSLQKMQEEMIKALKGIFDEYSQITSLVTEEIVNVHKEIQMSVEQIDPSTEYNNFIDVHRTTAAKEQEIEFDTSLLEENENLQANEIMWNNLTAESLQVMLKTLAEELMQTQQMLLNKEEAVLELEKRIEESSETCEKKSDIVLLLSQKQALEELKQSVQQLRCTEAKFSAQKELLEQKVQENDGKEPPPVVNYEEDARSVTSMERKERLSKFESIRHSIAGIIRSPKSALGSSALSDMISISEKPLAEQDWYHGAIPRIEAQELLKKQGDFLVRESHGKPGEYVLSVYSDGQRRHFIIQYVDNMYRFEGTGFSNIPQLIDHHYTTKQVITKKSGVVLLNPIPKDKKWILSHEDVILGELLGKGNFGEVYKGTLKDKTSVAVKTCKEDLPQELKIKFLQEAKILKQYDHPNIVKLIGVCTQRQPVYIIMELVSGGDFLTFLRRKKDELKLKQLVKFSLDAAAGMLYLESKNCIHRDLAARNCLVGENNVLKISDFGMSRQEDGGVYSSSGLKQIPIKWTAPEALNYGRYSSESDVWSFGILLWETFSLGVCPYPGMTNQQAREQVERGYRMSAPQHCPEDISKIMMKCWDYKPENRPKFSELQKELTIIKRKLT
T1 sequence (P23743 whole entry, the tested form may be a part): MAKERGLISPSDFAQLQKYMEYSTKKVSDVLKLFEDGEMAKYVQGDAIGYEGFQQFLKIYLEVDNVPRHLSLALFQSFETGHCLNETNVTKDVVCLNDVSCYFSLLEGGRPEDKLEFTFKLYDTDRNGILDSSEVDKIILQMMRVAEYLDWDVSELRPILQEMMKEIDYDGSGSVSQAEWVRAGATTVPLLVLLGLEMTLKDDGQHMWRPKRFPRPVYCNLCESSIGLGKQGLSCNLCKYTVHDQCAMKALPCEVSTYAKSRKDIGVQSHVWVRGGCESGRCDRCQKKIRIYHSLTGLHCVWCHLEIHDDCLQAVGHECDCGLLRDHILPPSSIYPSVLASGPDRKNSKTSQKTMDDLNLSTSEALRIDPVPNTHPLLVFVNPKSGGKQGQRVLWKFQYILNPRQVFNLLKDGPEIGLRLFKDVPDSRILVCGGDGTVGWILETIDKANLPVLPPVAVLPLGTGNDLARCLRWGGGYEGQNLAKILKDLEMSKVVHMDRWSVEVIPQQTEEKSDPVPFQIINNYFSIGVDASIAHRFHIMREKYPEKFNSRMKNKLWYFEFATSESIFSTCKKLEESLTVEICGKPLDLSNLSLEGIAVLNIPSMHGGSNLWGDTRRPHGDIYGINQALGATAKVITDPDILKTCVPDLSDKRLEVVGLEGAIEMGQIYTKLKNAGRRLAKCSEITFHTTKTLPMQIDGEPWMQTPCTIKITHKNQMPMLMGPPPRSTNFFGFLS
T3 sequence (Q86UE8 whole entry): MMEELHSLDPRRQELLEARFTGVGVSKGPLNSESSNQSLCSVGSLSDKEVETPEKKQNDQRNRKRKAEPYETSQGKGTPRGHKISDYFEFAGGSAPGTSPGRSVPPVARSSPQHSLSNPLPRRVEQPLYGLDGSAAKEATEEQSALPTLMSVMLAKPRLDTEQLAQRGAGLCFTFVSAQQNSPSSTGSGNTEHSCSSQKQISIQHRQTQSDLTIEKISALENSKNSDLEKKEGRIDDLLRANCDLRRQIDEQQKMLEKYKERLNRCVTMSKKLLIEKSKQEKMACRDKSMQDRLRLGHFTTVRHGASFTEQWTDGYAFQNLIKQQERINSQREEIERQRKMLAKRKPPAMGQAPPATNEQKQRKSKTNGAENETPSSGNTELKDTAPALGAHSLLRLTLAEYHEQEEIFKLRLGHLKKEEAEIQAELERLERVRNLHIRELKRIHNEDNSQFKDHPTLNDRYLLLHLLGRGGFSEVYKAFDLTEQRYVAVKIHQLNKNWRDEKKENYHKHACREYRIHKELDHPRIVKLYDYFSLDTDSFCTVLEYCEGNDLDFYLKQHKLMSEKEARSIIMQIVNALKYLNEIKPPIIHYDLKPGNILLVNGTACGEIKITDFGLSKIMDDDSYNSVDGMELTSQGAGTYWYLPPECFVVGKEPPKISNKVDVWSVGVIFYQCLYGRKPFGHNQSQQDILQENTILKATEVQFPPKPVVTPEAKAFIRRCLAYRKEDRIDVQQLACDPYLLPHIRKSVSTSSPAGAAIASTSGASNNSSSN

Broadly, the half-life is the time needed for the level to fall by half in the phase considered. `Cc1nc2sccn2c(=O)c1CCN1CCC(=C(c2ccc(F)cc2)c2ccc(F)cc2)CC1` [Ritanserin]: the “inhibition of JWB003 probe labeling of hDGKa” value in data set [1] is listed as “Probe labeling is inhibited”. Besides, the “cell killing of noncancerous primary cells (WST-1), words” value in data set [2] was “negligible cell killing”. Also, the “adverse side effects” value in data set [3] is listed as “lack of adverse side effects”. Moreover, the half-life in data set [3] (oral) was about 40 h. In addition, the “kinase target by SILAC ratio criterion” value at FER and at TLK2 was “most potent targets” throughout.

Values taken from patent publication US12643867B2, “Compositions and uses thereof” (University of Virginia Patent Foundation, priority 2017, dated 2026).
